The text below walks through data of BindingDB's records for doi:10.1021/jm9905054 (Eisai, 2000).

The structures appear in SMILES notation. Counter-ions that a name gives are not always drawn.

A word on the IC50: it is the point on the concentration scale where inhibition reaches its midpoint.

The test in a line: 50% inhibitory concentration against phosphodiesterase 5 (PDE5) from porcine platelets.
In turn, `COc1ccc(CNc2nnc(Cl)c3ccc(C#N)cc23)cc1Cl` displayed an IC50 of 3 nM. To `COc1ccc(CNc2nnc(N3CC[S+]([O-])CC3)c3ccc(C#N)cc23)cc1Cl` belongs 0.7 nM; to `COc1ccc(CNc2nnc(N3CCC(C(N)=O)CC3)c3ccc(C#N)cc23)cc1Cl` [1-[4-(3-Chloro-4-methoxy-benzylamino)-6-cyano-phthalazin-1-yl]-piperidine-4-carboxylic acid amide; hydrochloride], 0.5 nM; to `COc1ccc(CNc2nnc(N3CCC(C(=O)O)CC3)c3ccc(C#N)cc23)cc1Cl` [1-[4-(3-Chloro-4-methoxy-benzylamino)-6-cyano-phthalazin-1-yl]-piperidine-4-carboxylic acid; hydrochloride], 3.1 nM.

In the case of `COc1ccc(CNc2nnc(N3CCC(O)CC3)c3ccc([N+](=O)[O-])cc23)cc1Cl` [1-[4-(3-Chloro-4-methoxy-benzylamino)-6-nitro-phthalazin-1-yl]-piperidin-4-ol; hydrochloride], the IC50 came out at 0.3 nM. To `COc1ccc(CNc2nnc(N3CCC(O)CC3)c3ccc(C(F)(F)F)cc23)cc1Cl` [1-[4-(3-Chloro-4-methoxy-benzylamino)-6-trifluoromethyl-phthalazin-1-yl]-piperidin-4-ol; hydrochloride] belongs 0.73 nM. To `COc1ccc(CNc2nnc(N3CCC(O)CC3)c3cc(Cl)c(Cl)cc23)cc1Cl` [1-[6,7-Dichloro-4-(3-chloro-4-methoxy-benzylamino)-phthalazin-1-yl]-piperidin-4-ol; hydrochloride] belongs 0.86 nM; to `COc1ccc(CNc2nnc(N3CCC(O)CC3)c3ccc(Cl)cc23)cc1Cl` [1-[6-Chloro-4-(3-chloro-4-methoxy-benzylamino)-phthalazin-1-yl]-piperidin-4-ol; hydrochloride], 4.4 nM; to `COc1ccc(CNc2nnc(N3CCS(=O)(=O)CC3)c3ccc(C#N)cc23)cc1Cl` [4-(3-Chloro-4-methoxy-benzylamino)-1-(1,1-dioxo-1lambda*6*-thiomorpholin-4-yl)-phthalazine-6-carbonitrile; hydrochloride], 0.79 nM. Compound `COc1ccc(CNc2nnc(N3CC=CCC3)c3ccc(C#N)cc23)cc1Cl` [4-(3-Chloro-4-methoxy-benzylamino)-1-(3,6-dihydro-2H-pyridin-1-yl)-phthalazine-6-carbonitrile; hydrochloride] gave an IC50 of 1.9 nM. As for `COc1ccc(CNc2nnc(N3CCCC(O)C3)c3ccc(C#N)cc23)cc1Cl` (configuration not stated) [4-(3-Chloro-4-methoxy-benzylamino)-1-(3-hydroxy-piperidin-1-yl)-phthalazine-6-carbonitrile; hydrochloride], the IC50 was determined as 1.2 nM. To `COc1ccc(CNc2nnc(NCCCO)c3ccc(C#N)cc23)cc1Cl` [4-(3-Chloro-4-methoxy-benzylamino)-1-(3-hydroxy-propylamino)-phthalazine-6-carbonitrile; hydrochloride] belongs 2.6 nM; to `COc1ccc(CNc2nnc(N3CCC(C)(O)CC3)c3ccc(C#N)cc23)cc1Cl` [4-(3-Chloro-4-methoxy-benzylamino)-1-(4-hydroxy-4-methyl-piperidin-1-yl)-phthalazine-6-carbonitrile; hydrochloride], 0.7 nM.

As to `COc1ccc(CNc2nnc(N[C@H]3CC[C@H](O)CC3)c3ccc(C#N)cc23)cc1Cl` [4-(3-Chloro-4-methoxy-benzylamino)-1-(4-hydroxy-cyclohexylamino)-phthalazine-6-carbonitrile; hydrochloride], the IC50 came to 12 nM. As for `COc1ccc(CNc2nnc(N3CCC(O)CC3)c3ccc(C(N)=O)cc23)cc1Cl` [4-(3-Chloro-4-methoxy-benzylamino)-1-(4-hydroxy-piperidin-1-yl)-phthalazine-6-carboxylic acid amide; hydrochloride], the figure is 2 nM; as for `COc1ccc(CNc2nnc(N3CCC(O)CC3)c3ccc(C(=O)O)cc23)cc1Cl` [4-(3-Chloro-4-methoxy-benzylamino)-1-(4-hydroxy-piperidin-1-yl)-phthalazine-6-carboxylic acid; hydrochloride], 600 nM. In turn, `COc1ccc(CNc2nnc(N3CCC(CO)CC3)c3ccc(C#N)cc23)cc1Cl` [4-(3-Chloro-4-methoxy-benzylamino)-1-(4-hydroxymethyl-piperidin-1-yl)-phthalazine-6-carbonitrile; hydrochloride] showed an IC50 of 0.93 nM. As for `COc1ccc(CNc2nnc(N3CCC(OC)CC3)c3ccc(C#N)cc23)cc1Cl` [4-(3-Chloro-4-methoxy-benzylamino)-1-(4-methoxy-piperidin-1-yl)-phthalazine-6-carbonitrile; hydrochloride], the figure is 1.1 nM. Consider `COc1ccc(CNc2nnc(N3CCN(C)CC3)c3ccc(C#N)cc23)cc1Cl` [4-(3-Chloro-4-methoxy-benzylamino)-1-(4-methyl-piperazin-1-yl)-phthalazine-6-carbonitrile; hydrochloride], for which the half-maximal inhibitory concentration (IC50) was 0.95 nM.

`COc1ccc(CNc2nnc(N3CCC(=O)CC3)c3ccc(C#N)cc23)cc1Cl` [4-(3-Chloro-4-methoxy-benzylamino)-1-(4-oxo-piperidin-1-yl)-phthalazine-6-carbonitrile; hydrochloride] came in with an IC50 of 0.53 nM.

`COc1ccc(CNc2nnc(N3CCN(c4ccccn4)CC3)c3ccc(C#N)cc23)cc1Cl` [4-(3-Chloro-4-methoxy-benzylamino)-1-(4-pyridin-2-yl-piperazin-1-yl)-phthalazine-6-carbonitrile; hydrochloride] yielded an IC50 of 11 nM. To `COc1ccc(CNc2nnc(N3CCN(c4ncccn4)CC3)c3ccc(C#N)cc23)cc1Cl` [4-(3-Chloro-4-methoxy-benzylamino)-1-(4-pyrimidin-2-yl-piperazin-1-yl)-phthalazine-6-carbonitrile; hydrochloride] belongs 19 nM; to `COc1ccc(CNc2nnc(N3CCN(CCO)CC3)c3ccc(C#N)cc23)cc1Cl` [4-(3-Chloro-4-methoxy-benzylamino)-1-[4-(2-hydroxy-ethyl)-piperazin-1-yl]-phthalazine-6-carbonitrile; hydrochloride], 1.7 nM; to `COc1ccc(CNc2nnc(N3CCC(CCO)CC3)c3ccc(C#N)cc23)cc1Cl` [4-(3-Chloro-4-methoxy-benzylamino)-1-[4-(2-hydroxy-ethyl)-piperidin-1-yl]-phthalazine-6-carbonitrile; hydrochloride], 0.7 nM. `COc1ccc(CNc2nnc(NCc3ccccn3)c3ccc(C#N)cc23)cc1Cl` [4-(3-Chloro-4-methoxy-benzylamino)-1-[(pyridin-2-ylmethyl)-amino]-phthalazine-6-carbonitrile; hydrochloride] had a half-maximal inhibitory concentration (IC50) of 2.7 nM. For `COc1ccc(CNc2nnc(NCc3cccnc3)c3ccc(C#N)cc23)cc1Cl` [4-(3-Chloro-4-methoxy-benzylamino)-1-[(pyridin-3-ylmethyl)-amino]-phthalazine-6-carbonitrile; hydrochloride], the IC50 came out at 6.8 nM. To `COc1ccc(CNc2nnc(NCc3ccncc3)c3ccc(C#N)cc23)cc1Cl` [4-(3-Chloro-4-methoxy-benzylamino)-1-[(pyridin-4-ylmethyl)-amino]-phthalazine-6-carbonitrile; hydrochloride] belongs 6.7 nM; to `COc1ccc(CNc2nnc(-n3ccnc3)c3ccc(C#N)cc23)cc1Cl` [4-(3-Chloro-4-methoxy-benzylamino)-1-imidazol-1-yl-phthalazine-6-carbonitrile; hydrochloride], 1.5 nM. As for `COc1ccc(CNc2nnc(N3CCNCC3)c3ccc(C#N)cc23)cc1Cl` [4-(3-Chloro-4-methoxy-benzylamino)-1-piperazin-1-yl-phthalazine-6-carbonitrile; hydrochloride], the figure is 1.2 nM; as for `COc1ccc(CNc2nnc(N3CCCCC3)c3ccc(C#N)cc23)cc1Cl` [4-(3-Chloro-4-methoxy-benzylamino)-1-piperidin-1-yl-phthalazine-6-carbonitrile; hydrochloride], 0.55 nM; as for `COc1ccc(CNc2nnc(N3CCSCC3)c3ccc(C#N)cc23)cc1Cl` [4-(3-Chloro-4-methoxy-benzylamino)-1-thiomorpholin-4-yl-phthalazine-6-carbonitrile; hydrochloride], 0.32 nM. As for `COc1ccc(CNc2nnc(N3CCC(NS(C)(=O)=O)CC3)c3ccc(C#N)cc23)cc1Cl` [N-{1-[4-(3-Chloro-4-methoxy-benzylamino)-6-cyano-phthalazin-1-yl]-piperidin-4-yl}-methanesulfonamide; hydrochloride], the figure is 14 nM.
